In patent US7825118B2, “Inhibitors of bruton's tyrosine kinase” (Pharmacyclics, Inc., priority 2006, dated 2010):
Where two headings read alike, the source gives them in different places. One block for each compound: values may come before it.

Experiments:
CRL-8062 = assay: Cytotoxicity CRL-8062; format: cell-based; conditions: Myeloma
MDA-MB-453 = assay: Cytotoxicity MDA-MB-453; format: cell-based; conditions: Homo sapiens, Breast
pERK in DOHH2 cells = assay: Basal pERK levels in unstimulated DOHH2 cells; format: cell-based; conditions: Homo sapiens, DOHH-2, read-out: decrease of pERK levels IC50
From the text: (§1) To identify biomarkers that correlate with response to Compound 4, phosphorylation events in the BCR signal transduction pathway were investigated. […].
. However, when we examined basal phosphorylation levels, we found higher basal phosphorylation in DOHH2 compared to Ramos, with phospho-ERK in particular indicating higher levels of basal or tonic signaling in DOHH2. […]

BT-549 = assay: Cytotoxicity BT-549; format: cell-based; conditions: Homo sapiens, Breast
DLCL2 = assay: Cytotoxicity DLCL2; format: cell-based; conditions: Lymphoma
MDA-MB-361 = assay: Cytotoxicity MDA-MB-361; format: cell-based; conditions: Homo sapiens, Breast
MDA-MB-468 = assay: Cytotoxicity MDA-MB-468; format: cell-based; conditions: Homo sapiens, Breast
A549 = assay: Cytotoxicity A549; format: cell-based; conditions: Homo sapiens, Lung
Mino = assay: Cytotoxicity Mino; format: cell-based; conditions: Homo sapiens, Lymphoma
DOHH2 = assay: Cytotoxicity DOHH2; format: cell-based; conditions: for GI50: Homo sapiens, DOHH-2, Lymphoma
Ramos = assay: Sensitivity of Ramos cell line; format: cell-based, human
From the text: as §1

Raji = assay: Cytotoxicity Raji; format: cell-based; conditions: Homo sapiens, Lymphoma
NCI-H460 = assay: Cytotoxicity NCI-H460; format: cell-based; conditions: Homo sapiens, Lung
[1] = tested on: Btk expressing B cell lymphoma cell lines; assay: Panel of nine Btk expressing B cell lymphoma cell lines; format: cell-based
MDA-MB-231 = assay: Cytotoxicity MDA-MB-231; format: cell-based; conditions: Homo sapiens, Breast
Egr-1 = assay: Expression of ERK transcriptional target Egr-1; format: cell-based; conditions: 1 uM
DHL-6 = assay: Cytotoxicity DHL-6; format: cell-based; conditions: Lymphoma
SK-BR3 = assay: Cytotoxicity SK-BR3; format: cell-based; conditions: Homo sapiens, SK-BR-3; Breast
Btk = Btk (Homo sapiens, UniProt Q06187); assay: Btk acellular kinase assay (TR-FRET); format: biochemical
ITK = ITK (Homo sapiens, UniProt Q08881); assay: Panel of kinases: ITK; format: biochemical; conditions: Cys: Y
JAK3 = JAK3 (Homo sapiens, UniProt P52333); assay: Panel of kinases: JAK3; format: biochemical; conditions: Cys: Y
BLK = BLK (Homo sapiens, UniProt P51451); assay: Panel of kinases: BLK; format: biochemical; conditions: Cys: Y
DHL-6 cells = assay: Growth of DHL-6 cells (Alamar Blue, FIG. 3); format: cell-based; conditions: 3E4 cells/well, complete media, 0.1% DMSO
[2] = acellular TR-FRET kinase assay, ATP at Km, read-out: Btk IC50

Btk, sequence (Q06187 whole entry): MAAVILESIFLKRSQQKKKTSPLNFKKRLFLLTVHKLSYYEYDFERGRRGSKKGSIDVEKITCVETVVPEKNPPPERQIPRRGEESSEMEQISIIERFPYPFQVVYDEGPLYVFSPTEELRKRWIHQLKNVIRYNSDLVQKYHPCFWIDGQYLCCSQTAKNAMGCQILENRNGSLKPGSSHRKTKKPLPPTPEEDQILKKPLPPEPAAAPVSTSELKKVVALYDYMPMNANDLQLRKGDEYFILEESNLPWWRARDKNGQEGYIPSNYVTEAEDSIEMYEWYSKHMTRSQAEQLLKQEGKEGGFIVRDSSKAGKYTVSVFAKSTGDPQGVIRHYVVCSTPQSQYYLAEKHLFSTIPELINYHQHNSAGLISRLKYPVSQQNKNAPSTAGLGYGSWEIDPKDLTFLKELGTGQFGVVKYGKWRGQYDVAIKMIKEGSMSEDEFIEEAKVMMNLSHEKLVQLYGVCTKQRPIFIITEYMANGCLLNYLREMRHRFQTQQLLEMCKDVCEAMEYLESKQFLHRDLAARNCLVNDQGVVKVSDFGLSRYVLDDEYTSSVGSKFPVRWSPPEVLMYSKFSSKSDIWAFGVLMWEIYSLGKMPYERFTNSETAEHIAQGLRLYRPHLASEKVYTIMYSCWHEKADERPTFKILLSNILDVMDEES
BLK, sequence (P51451 whole entry): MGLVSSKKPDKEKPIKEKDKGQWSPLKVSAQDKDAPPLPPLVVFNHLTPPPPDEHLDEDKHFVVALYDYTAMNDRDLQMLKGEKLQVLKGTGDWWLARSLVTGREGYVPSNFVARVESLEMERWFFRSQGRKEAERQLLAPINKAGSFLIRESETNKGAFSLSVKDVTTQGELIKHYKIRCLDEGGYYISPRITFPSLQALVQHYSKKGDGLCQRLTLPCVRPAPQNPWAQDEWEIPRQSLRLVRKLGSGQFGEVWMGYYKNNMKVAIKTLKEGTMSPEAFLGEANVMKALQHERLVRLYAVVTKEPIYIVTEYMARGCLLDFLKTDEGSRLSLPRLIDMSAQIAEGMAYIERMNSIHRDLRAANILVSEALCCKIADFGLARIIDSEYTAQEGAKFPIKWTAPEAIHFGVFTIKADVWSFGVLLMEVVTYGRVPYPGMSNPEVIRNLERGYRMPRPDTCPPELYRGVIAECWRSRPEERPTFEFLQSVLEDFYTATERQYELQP
ITK, sequence (Q08881 whole entry): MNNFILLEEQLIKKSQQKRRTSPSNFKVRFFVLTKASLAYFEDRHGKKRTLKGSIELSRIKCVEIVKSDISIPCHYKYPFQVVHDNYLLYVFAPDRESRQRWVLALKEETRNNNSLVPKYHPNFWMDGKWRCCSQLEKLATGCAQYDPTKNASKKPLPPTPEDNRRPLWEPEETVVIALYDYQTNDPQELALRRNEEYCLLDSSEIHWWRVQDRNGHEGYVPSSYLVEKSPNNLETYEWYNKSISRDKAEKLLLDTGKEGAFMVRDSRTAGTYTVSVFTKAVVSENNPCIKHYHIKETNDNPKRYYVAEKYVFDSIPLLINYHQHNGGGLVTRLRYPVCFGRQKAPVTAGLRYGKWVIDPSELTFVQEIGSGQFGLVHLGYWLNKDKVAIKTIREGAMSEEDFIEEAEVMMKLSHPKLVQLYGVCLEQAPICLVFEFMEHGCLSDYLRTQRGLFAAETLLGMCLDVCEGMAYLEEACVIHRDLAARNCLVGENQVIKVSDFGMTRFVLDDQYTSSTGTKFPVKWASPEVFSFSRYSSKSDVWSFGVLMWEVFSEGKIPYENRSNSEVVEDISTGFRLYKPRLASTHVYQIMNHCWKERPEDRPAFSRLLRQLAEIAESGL
JAK3, sequence (P52333 whole entry): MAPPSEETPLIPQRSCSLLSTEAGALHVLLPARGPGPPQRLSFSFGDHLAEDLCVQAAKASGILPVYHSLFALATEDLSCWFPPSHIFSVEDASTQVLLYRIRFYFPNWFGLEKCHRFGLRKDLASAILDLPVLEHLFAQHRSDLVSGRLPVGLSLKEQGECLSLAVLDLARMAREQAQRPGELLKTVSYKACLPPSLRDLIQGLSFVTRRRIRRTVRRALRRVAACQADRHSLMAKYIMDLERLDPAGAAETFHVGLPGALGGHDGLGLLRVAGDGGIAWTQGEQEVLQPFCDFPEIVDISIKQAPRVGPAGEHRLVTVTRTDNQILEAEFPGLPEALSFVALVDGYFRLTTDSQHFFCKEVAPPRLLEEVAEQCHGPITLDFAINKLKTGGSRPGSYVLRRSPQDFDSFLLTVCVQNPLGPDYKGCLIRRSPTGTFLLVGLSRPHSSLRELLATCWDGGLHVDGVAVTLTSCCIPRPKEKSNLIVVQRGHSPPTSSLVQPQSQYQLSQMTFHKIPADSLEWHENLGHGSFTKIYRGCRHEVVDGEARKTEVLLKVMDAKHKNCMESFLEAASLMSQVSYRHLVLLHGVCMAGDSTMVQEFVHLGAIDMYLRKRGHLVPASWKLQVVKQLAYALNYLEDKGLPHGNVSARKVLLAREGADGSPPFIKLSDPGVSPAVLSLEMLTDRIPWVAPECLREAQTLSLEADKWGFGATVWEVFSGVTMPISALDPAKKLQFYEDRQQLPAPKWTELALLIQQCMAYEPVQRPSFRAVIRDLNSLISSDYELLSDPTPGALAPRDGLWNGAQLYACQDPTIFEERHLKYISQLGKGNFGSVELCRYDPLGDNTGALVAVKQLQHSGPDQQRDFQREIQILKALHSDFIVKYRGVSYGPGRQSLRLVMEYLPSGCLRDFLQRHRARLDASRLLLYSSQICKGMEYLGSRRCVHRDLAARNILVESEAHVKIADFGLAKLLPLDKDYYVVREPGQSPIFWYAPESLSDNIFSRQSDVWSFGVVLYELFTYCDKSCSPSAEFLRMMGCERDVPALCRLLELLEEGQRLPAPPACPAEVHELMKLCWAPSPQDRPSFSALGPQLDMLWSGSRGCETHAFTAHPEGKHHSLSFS

Structure (SMILES): C=CC(=O)N1CCCC(n2nc(-c3ccc(Oc4ccccc4)cc3)c3c(N)ncnc32)C1 (centres unmarked) [Compound 4, 1-(3-(4-amino-3-(4-phenoxyphenyl)-1H-pyrazolo[3,4-d]pyrimidin-1-yl)piperidin-1-yl)prop-2-en-1-one]
GI50 (CRL-8062): > 10 µM | GI50 (MDA-MB-453): < 0.001 µM | IC50 (pERK in DOHH2 cells): < 10 nM | GI50 (BT-549): > 10 µM | GI50 (DLCL2): 1.3 µM | GI50 (MDA-MB-361): > 10 µM | GI50 (MDA-MB-468): > 10 µM | GI50 (A549): > 10 µM | GI50 (Mino): 1.9 µM | sensitivity of cell line DOHH2 (DOHH2): sensitive | GI50 (DOHH2): 0.77 µM | sensitivity of cell line Ramos (Ramos): resistant | GI50 (Raji): > 10 µM | GI50 (NCI-H460): > 10 µM | GI50 ([1]; B-cell, 5 of seven lines with high basal pERK, read-out: GI50 of sensitive cell lines): < 1300 nM | response of cell lines with low pERK levels ([1]; two cell lines with low pERK levels): resistant | GI50 (MDA-MB-231): > 10 µM | time within which Egr-1 expression is reduced (Egr-1): ≤ 1 h | GI50 (DHL-6): 0.75 µM | GI50 (SK-BR3): 0.44 µM

Structure (SMILES): C/C=C/C(=O)N1CCCC(n2nc(-c3ccc(Oc4ccccc4)cc3)c3c(N)ncnc32)C1 (centres unmarked) [Compound 5, (E)-1-(3-(4-amino-3-(4-phenoxyphenyl)-1H-pyrazolo[3,4-d]pyrimidin-1-yl)piperidin-1-yl)but-2-en-1-one]
fold less potent than 4 (Btk; Btk potency relative to compound 4): 28 fold | IC50 (Btk; [2]): 20 nM

Structure (SMILES): C#CC(=O)N1CCCC(n2nc(-c3ccc(Oc4ccccc4)cc3)c3c(N)ncnc32)C1 (centres unmarked) [Compound 8, 1-(3-(4-amino-3-(4-phenoxyphenyl)-1H-pyrazolo[3,4-d]pyrimidin-1-yl)piperidin-1-yl)prop-2-yn-1-one]
IC50 (Btk): 0.72 nM

Structure (SMILES): CN(C)C/C=C/C(=O)N1CCC[C@@H](n2nc(-c3ccc(Oc4ccccc4)cc3)c3c(N)ncnc32)C1 [Compound 15, (E)-1-(3-(4-amino-3-(4-phenoxyphenyl)-1H-pyrazolo[3,4-d]pyrimidin-1-yl)piperidin-1-yl)-4-(dimethylamino)but-2-en-1-one]
growth of DHL-6 cells (DHL-6 cells): inhibit growth

Continued, in another order:

IC50 (Btk; [2]): 3.6 nM
Structure (SMILES): C=CC(=O)N1CCC(n2nc(-c3ccc(Oc4ccccc4)cc3)c3c(N)ncnc32)CC1 [Compound 9, 1-(4-(4-amino-3-(4-phenoxyphenyl)-1H-pyrazolo[3,4-d]pyrimidin-1-yl)piperidin-1-yl)prop-2-en-1-one]

IC50 (ITK): 910 nM | IC50 (JAK3): 8280 nM | IC50 (BLK): 0.17 nM
Structure (SMILES): C=CC(=O)N[C@H]1CC[C@@H](n2nc(-c3ccc(Oc4ccccc4)cc3)c3c(N)ncnc32)CC1 [Compound 10, N-((1s,4s)-4-(4-amino-3-(4-phenoxyphenyl)-1H-pyrazolo[3,4-d]pyrimidin-1-yl)cyclohexyl)acrylamide]
GI50 (CRL-8062): > 10 µM | GI50 (MDA-MB-453): 0.54 µM | GI50 (BT-549): 2.79 µM | GI50 (DLCL2): 4.82 µM | GI50 (MDA-MB-361): > 10 µM | GI50 (MDA-MB-468): > 10 µM | GI50 (A549): 3.13 µM | GI50 (Mino): 0.12 µM | GI50 (DOHH2): 0.011 µM | GI50 (Raji): > 10 µM | GI50 (NCI-H460): > 10 µM | GI50 (MDA-MB-231): > 10 µM | GI50 (DHL-6): 0.009 µM | GI50 (SK-BR3): 0.24 µM

IC50 (Btk; [2]): 1.6 nM
Structure (SMILES): C=CC(=O)N1CC[C@@H](n2nc(-c3ccc(Oc4ccccc4)cc3)c3c(N)ncnc32)C1 [Compound 11, 1-((R)-3-(4-amino-3-(4-phenoxyphenyl)-1H-pyrazolo[3,4-d]pyrimidin-1-yl)pyrrolidin-1-yl)prop-2-en-1-one]

IC50 (Btk; [2]): 1.9 nM
Structure (SMILES): C=CC(=O)N1CC[C@H](n2nc(-c3ccc(Oc4ccccc4)cc3)c3c(N)ncnc32)C1 [Compound 12, 1-((S)-3-(4-amino-3-(4-phenoxyphenyl)-1H-pyrazolo[3,4-d]pyrimidin-1-yl)pyrrolidin-1-yl)prop-2-en-1-one]
